Values quoted from earlier work, collected in patent publication US20140023718A1, “PROSTAGLANDIN-CONTAINING FAT EMULSION” (FUJIFILM Corporation, priority 2011, published 2014).

Conditions: 25° C. water

pKa	pKa1	pKa2	Compound
4.63	–	–	CCCC(=O)O [butyric acid]
–	3.40	5.13	O=C(O)CC(O)C(=O)O (centres unmarked) [malic acid]
–	4.00	5.24	O=C(O)CCC(=O)O [succinic acid]
